{
  "source": "patent US20230338545A1",
  "about": "(SYRACUSE UNIVERSITY, priority 2020, published 2023)",
  "key": {"[1]": {"details": "comparison value; cited from earlier work"}, "[2]": {"system": "CaCo-2 cells", "assay": "Cellular uptake of magnesium in CaCo-2 cells", "type": "cell-based, human", "details": "incubation time 1 hr, samples contain ~8% magnesium citrate"}, "[3]": {"assay": "Solubility in water"}},
  "note": "“Also recorded” adds a separate entry of the source.",
  "data": [
    {"molecule": "CCc1occc(=O)c1O", "note": "[ethylmaltol]", "values": [
      {"measurement": "water solubility of free ligand", "setting": "[1]", "value": 5.84, "unit": "g/100 mL"}
    ]},
    {"molecule": "Cc1occc(=O)c1O", "note": "[maltol, 3-HYDROXY-2-METHYL-4H-PYRAN-4-ONE]", "values": [
      {"measurement": "water solubility of free ligand", "setting": "[1]", "value": 1.2, "unit": "g/100 mL"}
    ]},
    {"molecule": "magnesium maltol [Complex 1]", "values": [
      {"measurement": "cellular uptake of magnesium", "setting": "[2]", "value": "substantial uptake of magnesium; also recorded: confirmed cellular entry"}
    ]},
    {"molecule": "magnesium ethylmaltol [Complex 2]", "values": [
      {"measurement": "cellular uptake of magnesium", "setting": "[2]", "value": "substantial uptake of magnesium; also recorded: slightly greater uptake than Complex 1; also recorded: confirmed cellular entry"},
      {"measurement": "solubility", "setting": "[3]; Example 3 product", "value": 26.8, "unit": "g/100 mL H2O"},
      {"measurement": "solubility relative to that of the free ligand", "setting": "[3]; complex vs. its ligand (maltol or ethylmaltol), water", "value": "approximately 4.9 ×"},
      {"measurement": "solubility", "setting": "[3]; triplicate independent runs", "value": "28.4±0.86 g per 100 mL of H2O"}
    ]}
  ]
}
